Source: US20240343704A1, “HALO-SUBSTITUTED AMINO PYRIDINE COMPOUNDS AS INHIBITORS OF THE HAEMATOPOIETIC PROGENITOR KINASE 1 (HPK1)” (priority 2021, published 2024)

Columns and labels:
[1] = target: T1, Recombinant (1-346) HPK1 (h) (Homo sapiens, UniProt Q92918); experiment: HPK1 Human STE Kinase Enzymatic Radiometric Assay; assay type: biochemical; conditions: read-out: HPK1 IC50 nM Range*
T1 construct: Recombinant (1-346) HPK1 (h) is incubated with 8 mM MOPS pH 7.0
T1 sequence (Q92918 1-346): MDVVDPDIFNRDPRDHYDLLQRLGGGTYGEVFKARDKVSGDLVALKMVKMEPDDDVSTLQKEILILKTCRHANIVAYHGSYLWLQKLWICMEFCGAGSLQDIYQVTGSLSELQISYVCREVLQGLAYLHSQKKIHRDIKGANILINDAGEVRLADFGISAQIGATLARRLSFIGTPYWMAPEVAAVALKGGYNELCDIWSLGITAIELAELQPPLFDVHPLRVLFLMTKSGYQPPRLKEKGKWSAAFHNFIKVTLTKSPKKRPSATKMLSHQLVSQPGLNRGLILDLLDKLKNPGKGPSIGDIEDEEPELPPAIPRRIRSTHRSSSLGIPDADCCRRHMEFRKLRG
Protocol: A stock solution of 10 mM of test compound is prepared in DMSO. The compound plate was prepared by 3-fold and 9-point serial dilutions. […] The reaction is initiated by The addition of the Mg/ATP mix. After incubation for 40 minutes at RT, the reaction is stopped by the addition of phosphoric acid to a concentration of 0.5%.

Lck (h) = Lck (h) (Homo sapiens, UniProt P06239); experiment: Lck Human  Kinase Enzymatic Radiometric Assay; assay type: biochemical; conditions: read-out: Lck IC50 nM Range*
Chain of Lck (h) (P06239 whole entry): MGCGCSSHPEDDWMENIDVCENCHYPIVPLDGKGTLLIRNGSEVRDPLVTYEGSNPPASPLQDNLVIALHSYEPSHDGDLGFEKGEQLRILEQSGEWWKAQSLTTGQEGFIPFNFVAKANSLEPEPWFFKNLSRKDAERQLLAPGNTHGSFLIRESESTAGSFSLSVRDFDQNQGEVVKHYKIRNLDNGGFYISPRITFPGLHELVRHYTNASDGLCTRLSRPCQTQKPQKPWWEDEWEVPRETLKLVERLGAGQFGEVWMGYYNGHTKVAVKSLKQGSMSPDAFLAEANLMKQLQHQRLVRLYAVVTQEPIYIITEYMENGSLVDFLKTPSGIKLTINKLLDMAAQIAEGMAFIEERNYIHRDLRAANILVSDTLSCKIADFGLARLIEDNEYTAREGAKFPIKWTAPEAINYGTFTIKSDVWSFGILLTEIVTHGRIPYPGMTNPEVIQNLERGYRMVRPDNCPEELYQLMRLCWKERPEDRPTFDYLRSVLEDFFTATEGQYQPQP
How it was run: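 Substrate 33P-incorporation measured by scintillation counting after spotting on P30 filtermat and phosphoric acid washes. Human Lck reacted 40 min at RT in 50 mM Tris pH 7.5 with 10 mM MgAcetate, [gamma-33P]-ATP, 250 uM Cdc2 peptide, 0.1 mM EGTA and 0.1 mM Na3VO4.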

With CC(C)N1CCOC(c2ccc(-c3cc(-c4ccc5c(c4)CCNC5=O)c(N)nc3F)cc2)C1 (stereo not drawn) [I-105, 6-(2-amino-6-fluoro-5-(4-(4-isopropylmorpholin-2-yl)phenyl)pyridin-3-yl)-3,4-dihydroisoquinolin-1(2H)-one] the IC50 [1] was 0.1 to 10 nM and the IC50 (Lck (h)) was > 1000 nM.

In the case of CN1C[C@@H]2C[C@]2(c2ccc(-c3cc(-c4ccc5c(c4)CCNC5=O)c(N)nc3F)cc2)C1 [I-106, 6-(2-amino-6-fluoro-5-(4-((1S,5R)-3-methyl-3-azabicyclo[3.1.0]hexan-1-yl)phenyl)pyridin-3-yl)-3,4-dihydroisoquinolin-1(2H)-one], the IC50 [1] is reported as 0.1 to 10 nM and the IC50 (Lck (h)) is reported as > 1000 nM.

COCCN1CCC(c2ccc(-c3cc(-c4ccc5c(c4)CCNC5=O)c(N)nc3F)cc2)CC1 [I-107, 6-(2-amino-6-fluoro-5-(4-(1-(2-methoxyethyl)piperidin-4-yl)phenyl)pyridin-3-yl)-3,4-dihydroisoquinolin-1(2H)-one] was tested, and the IC50 [1] was 0.1 to 10 nM and the IC50 (Lck (h)) was > 1000 nM.

In the case of C[C@@H]1COCCN1c1ccc(-c2cc(-c3ccc4c(c3)CCNC4=O)c(N)nc2F)c(F)c1 [I-108, (R)-6-(2-amino-6-fluoro-5-(2-fluoro-4-(3-methylmorpholino)phenyl)pyridin-3-yl)-3,4-dihydroisoquinolin-1(2H)-one], the IC50 [1] is reported as 11 to 100 nM and the IC50 (Lck (h)) is reported as > 1000 nM.

For Nc1nc(F)c(-c2ccc(C3=CCNC3)cc2)cc1-c1ccc2c(c1)CCNC2=O [I-109, 6-(2-amino-5-(4-(2,5-dihydro-1H-pyrrol-3-yl)phenyl)-6-fluoropyridin-3-yl)-3,4-dihydroisoquinolin-1(2H)-one 2,2,2-trifluoroacetate], the IC50 [1] was 0.1 to 10 nM and the IC50 (Lck (h)) was > 1000 nM.

With CC(C)N1C[C@H]2C[C@@]2(c2ccc(-c3cc(-c4ccc5c(c4)CCNC5=O)c(N)nc3F)cc2)C1 [I-110, 6-(2-amino-6-fluoro-5-(4-((1R,5S)-3-isopropyl-3-azabicyclo[3.1.0]hexan-1-yl)phenyl)pyridin-3-yl)-3,4-dihydroisoquinolin-1(2H)-one] the IC50 [1] was 0.1 to 10 nM and the IC50 (Lck (h)) was > 1000 nM.

In the case of CC(C)N1C[C@@H]2C[C@]2(c2ccc(-c3cc(-c4ccc5c(c4)CCNC5=O)c(N)nc3F)cc2)C1 [I-111, 6-(2-amino-6-fluoro-5-(4-((1S,5R)-3-isopropyl-3-azabicyclo[3.1.0]hexan-1-yl)phenyl)pyridin-3-yl)-3,4-dihydroisoquinolin-1(2H)-one 2,2,2-trifluoroacetate], the IC50 [1] is reported as 0.1 to 10 nM and the IC50 (Lck (h)) is reported as > 1000 nM.

For Nc1nc(F)c(-c2ccc(N3CC[C@@H](F)C3)cc2)cc1-c1ccc2c(c1)CCNC2=O [I-112, (R)-6-(2-amino-6-fluoro-5-(4-(3-fluoropyrrolidin-1-yl)phenyl)pyridin-3-yl)-3,4-dihydroisoquinolin-1(2H)-one], the IC50 [1] was 11 to 100 nM and the IC50 (Lck (h)) was > 1000 nM.

In the case of Nc1nc(F)c(-c2ccc(N3CC[C@H](F)C3)cc2)cc1-c1ccc2c(c1)CCNC2=O [I-113, (S)-6-(2-amino-6-fluoro-5-(4-(3-fluoropyrrolidin-1-yl)phenyl)pyridin-3-yl)-3,4-dihydroisoquinolin-1(2H)-one], the IC50 [1] is reported as 11 to 100 nM and the IC50 (Lck (h)) is reported as > 1000 nM.

In the case of CO[C@@H]1CCN(c2ccc(-c3cc(-c4ccc5c(c4)CCNC5=O)c(N)nc3F)cc2)C1 [I-114, (R)-6-(2-amino-6-fluoro-5-(4-(3-methoxypyrrolidin-1-yl)phenyl)pyridin-3-yl)-3,4-dihydroisoquinolin-1(2H)-one], the IC50 [1] is reported as 11 to 100 nM and the IC50 (Lck (h)) is reported as > 1000 nM.

CO[C@H]1CCN(c2ccc(-c3cc(-c4ccc5c(c4)CCNC5=O)c(N)nc3F)cc2)C1 [I-115, (S)-6-(2-amino-6-fluoro-5-(4-(3-methoxypyrrolidin-1-yl)phenyl)pyridin-3-yl)-3,4-dihydroisoquinolin-1(2H)-one] was tested, and the IC50 [1] was 0.1 to 10 nM and the IC50 (Lck (h)) was > 1000 nM.

With CS(=O)(=O)[C@@H]1CCN(c2ccc(-c3cc(-c4ccc5c(c4)CCNC5=O)c(N)nc3F)cc2)C1 [I-116, (R)-6-(2-amino-6-fluoro-5-(4-(3-(methylsulfonyl)pyrrolidin-1-yl)phenyl)pyridin-3-yl)-3,4-dihydroisoquinolin-1(2H)-one] the IC50 [1] was 0.1 to 10 nM and the IC50 (Lck (h)) was > 1000 nM.

For CS(=O)(=O)[C@H]1CCN(c2ccc(-c3cc(-c4ccc5c(c4)CCNC5=O)c(N)nc3F)cc2)C1 [I-117, (S)-6-(2-amino-6-fluoro-5-(4-(3-(methylsulfonyl)pyrrolidin-1-yl)phenyl)pyridin-3-yl)-3,4-dihydroisoquinolin-1(2H)-one], the IC50 [1] was 0.1 to 10 nM and the IC50 (Lck (h)) was > 1000 nM.

CN1C=NN(c2ccc(-c3cc(-c4ccc5c(c4)CCNC5=O)c(N)nc3F)cc2)CC1 [I-118, 6-(2-amino-6-fluoro-5-(4-(4-methyl-5,6-dihydro-1,2,4-triazin-1(4H)-yl)phenyl)pyridin-3-yl)-3,4-dihydroisoquinolin-1(2H)-one] was tested, and the IC50 [1] was 0.1 to 10 nM and the IC50 (Lck (h)) was > 1000 nM.

For Nc1nc(F)c(-c2ccc(C3CCN(CCO)CC3)cc2)cc1-c1ccc2c(c1)CCNC2=O [I-119, 6-(2-amino-6-fluoro-5-(4-(1-(2-hydroxyethyl)piperidin-4-yl)phenyl)pyridin-3-yl)-3,4-dihydroisoquinolin-1(2H)-one], the IC50 [1] was 0.1 to 10 nM and the IC50 (Lck (h)) was > 1000 nM.

CCN1CC=C(c2ccc(-c3cc(-c4ccc5c(c4)CCNC5=O)c(N)nc3F)cc2)C1 [I-120, 6-(2-amino-5-(4-(1-ethyl-2,5-dihydro-1H-pyrrol-3-yl)phenyl)-6-fluoropyridin-3-yl)-3,4-dihydroisoquinolin-1(2H)-one] was tested, and the IC50 [1] was 0.1 to 10 nM and the IC50 (Lck (h)) was > 1000 nM.

With CC(C)N1CC=C(c2ccc(-c3cc(-c4ccc5c(c4)CCNC5=O)c(N)nc3F)cc2)C1 [I-121, 6-(2-amino-6-fluoro-5-(4-(1-isopropyl-2,5-dihydro-1H-pyrrol-3-yl)phenyl)pyridin-3-yl)-3,4-dihydroisoquinolin-1(2H)-one] the IC50 [1] was 0.1 to 10 nM and the IC50 (Lck (h)) was > 1000 nM.

In the case of COCCN1CCCC(c2ccc(-c3cc(-c4ccc5c(c4)CCNC5=O)c(N)nc3F)cc2)C1 (stereo not drawn) [I-122, 6-(2-amino-6-fluoro-5-(4-(1-(2-methoxyethyl)piperidin-3-yl)phenyl)pyridin-3-yl)-3,4-dihydroisoquinolin-1(2H)-one], the IC50 [1] is reported as 0.1 to 10 nM and the IC50 (Lck (h)) is reported as > 1000 nM.

For Nc1nc(F)c(-c2ccc(C3=CCN(CCO)C3)cc2)cc1-c1ccc2c(c1)CCNC2=O [I-123, 6-(2-amino-6-fluoro-5-(4-(1-(2-hydroxyethyl)-2,5-dihydro-1H-pyrrol-3-yl)phenyl)pyridin-3-yl)-3,4-dihydroisoquinolin-1(2H)-one], the IC50 [1] was 0.1 to 10 nM and the IC50 (Lck (h)) was > 1000 nM.

COCCN1CC=C(c2ccc(-c3cc(-c4ccc5c(c4)CCNC5=O)c(N)nc3F)cc2)C1 [I-124, 6-(2-amino-6-fluoro-5-(4-(1-(2-methoxyethyl)-2,5-dihydro-1H-pyrrol-3-yl)phenyl)pyridin-3-yl)-3,4-dihydroisoquinolin-1(2H)-one] was tested, and the IC50 [1] was 0.1 to 10 nM and the IC50 (Lck (h)) was > 1000 nM.

For CC(C)(O)CN1C[C@H]2C[C@@]2(c2ccc(-c3cc(-c4ccc5c(c4)CCNC5=O)c(N)nc3F)cc2)C1 [I-125, 6-(2-amino-6-fluoro-5-(4-((1R,5S)-3-(2-hydroxy-2-methylpropyl)-3-azabicyclo[3.1.0]hexan-1-yl)phenyl)pyridin-3-yl)-3,4-dihydroisoquinolin-1(2H)-one], the IC50 [1] was 0.1 to 10 nM and the IC50 (Lck (h)) was > 1000 nM.

With CC(C)(O)CN1C[C@@H]2C[C@]2(c2ccc(-c3cc(-c4ccc5c(c4)CCNC5=O)c(N)nc3F)cc2)C1 [I-126, 6-(2-amino-6-fluoro-5-(4-((1S,5R)-3-(2-hydroxy-2-methylpropyl)-3-azabicyclo[3.1.0]hexan-1-yl)phenyl)pyridin-3-yl)-3,4-dihydroisoquinolin-1(2H)-one] the IC50 [1] was 0.1 to 10 nM and the IC50 (Lck (h)) was > 1000 nM.

Nc1nc(F)c(-c2ccc(C3=CCN(CC(F)F)C3)cc2)cc1-c1ccc2c(c1)CCNC2=O [I-127, 6-(2-amino-5-(4-(1-(2,2-difluoroethyl)-2,5-dihydro-1H-pyrrol-3-yl)phenyl)-6-fluoropyridin-3-yl)-3,4-dihydroisoquinolin-1(2H)-one] was tested, and the IC50 [1] was 0.1 to 10 nM and the IC50 (Lck (h)) was > 1000 nM.

For Nc1nc(F)c(-c2ccc(S(=O)(=O)C3CCNCC3)cc2)cc1-c1ccc2c(c1)CCNC2=O [I-128, 6-(2-amino-6-fluoro-5-(4-(piperidin-4-ylsulfonyl)phenyl)pyridin-3-yl)-3,4-dihydroisoquinolin-1(2H)-one], the IC50 [1] was 11 to 100 nM and the IC50 (Lck (h)) was > 1000 nM.

Work on CN1CCC(n2cc(-c3cc(-c4cc5c(cc4F)C(=O)NCC5)c(N)nc3F)cn2)CC1 [I-129, 6-(2-amino-6-fluoro-5-(1-(1-methylpiperidin-4-yl)-1H-pyrazol-4-yl)pyridin-3-yl)-7-fluoro-3,4-dihydroisoquinolin-1(2H)-one] yielded an IC50 [1] of 0.1 to 10 nM and an IC50 (Lck (h)) of 101 to 1000 nM.

With CC(C)[C@H]1CN(c2ccc(-c3cc(-c4ccc5c(c4)CCNC5=O)c(N)nc3F)cc2C(F)(F)F)CCO1 [I-130, (S)-6-(2-amino-6-fluoro-5-(4-(2-isopropylmorpholino)-3-(trifluoromethyl)phenyl)pyridin-3-yl)-3,4-dihydroisoquinolin-1(2H)-one] the IC50 [1] was 11 to 100 nM and the IC50 (Lck (h)) was > 1000 nM.

With CCN1CCOCC1c1ccc(-c2cc(-c3ccc4c(c3)CCNC4=O)c(N)nc2F)cc1 (stereo not drawn) [I-131, 6-(2-amino-5-(4-(4-ethylmorpholin-3-yl)phenyl)-6-fluoropyridin-3-yl)-3,4-dihydroisoquinolin-1(2H)-one] the IC50 [1] was 0.1 to 10 nM and the IC50 (Lck (h)) was > 1000 nM.
